Measured values as given in patent US20240209028A1, “CNP COMPOUNDS” (priority 2022, published 2024).
Values after ≈ are worked out from the molar mass of the structure shown. Read-outs that look alike come from different tables or passages of the source. Starred links: 1 amine or outer side, 2 acyl side, 3 side chain; linkers in the order of their positions; H or OH if unused. Positions of bridges follow the written chain, without caps; N, C: chain ends. Residues, ends and D or L forms follow the SMILES beside them. *: point of attachment. C18 diacid = O=C(O)CCCCCCCCCCCCCCCCC(=O)*; γGlu = O=C(O)[C@H](CCC(=O)[*:2])N[*:1]; AEEA = NCCOCCOCC(=O)O

How the values were obtained:
[1] = Solubility of CNP compounds at pH 4.0 and pH 6.5; type: physicochemical
Outline: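 Supernatant peptide concentration was quantified by CAD after overnight room-temperature equilibration of incompletely dissolved samples. Nominal loading was ≥4000-5000 nmol/mL. Media were pH 4.0 sodium acetate 5 mM/glycerol 250 mM, or pH 6.5 sodium phosphate 8 mM/glycerol 23 mg/mL reached by stepwise NaOH addition.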

[2] = target: T1, human natriuretic peptide receptor 2 (hNPR2) (Homo sapiens, UniProt P20594); assay: In vitro hNPR2 activity assay (cGMP GloSensor reporter, HEK293); type: cell-based; settings: for hNPR2 0% HSA. [EC50% rel CNP]: potency relative to CNP22 (0065)
T1 construct: expressed in transfected cells; host or cells: HEK293 (ATCC CRL-1573), clone 35, co-transfected with pGloSensor-42F
T1 sequence (P20594 23-1047): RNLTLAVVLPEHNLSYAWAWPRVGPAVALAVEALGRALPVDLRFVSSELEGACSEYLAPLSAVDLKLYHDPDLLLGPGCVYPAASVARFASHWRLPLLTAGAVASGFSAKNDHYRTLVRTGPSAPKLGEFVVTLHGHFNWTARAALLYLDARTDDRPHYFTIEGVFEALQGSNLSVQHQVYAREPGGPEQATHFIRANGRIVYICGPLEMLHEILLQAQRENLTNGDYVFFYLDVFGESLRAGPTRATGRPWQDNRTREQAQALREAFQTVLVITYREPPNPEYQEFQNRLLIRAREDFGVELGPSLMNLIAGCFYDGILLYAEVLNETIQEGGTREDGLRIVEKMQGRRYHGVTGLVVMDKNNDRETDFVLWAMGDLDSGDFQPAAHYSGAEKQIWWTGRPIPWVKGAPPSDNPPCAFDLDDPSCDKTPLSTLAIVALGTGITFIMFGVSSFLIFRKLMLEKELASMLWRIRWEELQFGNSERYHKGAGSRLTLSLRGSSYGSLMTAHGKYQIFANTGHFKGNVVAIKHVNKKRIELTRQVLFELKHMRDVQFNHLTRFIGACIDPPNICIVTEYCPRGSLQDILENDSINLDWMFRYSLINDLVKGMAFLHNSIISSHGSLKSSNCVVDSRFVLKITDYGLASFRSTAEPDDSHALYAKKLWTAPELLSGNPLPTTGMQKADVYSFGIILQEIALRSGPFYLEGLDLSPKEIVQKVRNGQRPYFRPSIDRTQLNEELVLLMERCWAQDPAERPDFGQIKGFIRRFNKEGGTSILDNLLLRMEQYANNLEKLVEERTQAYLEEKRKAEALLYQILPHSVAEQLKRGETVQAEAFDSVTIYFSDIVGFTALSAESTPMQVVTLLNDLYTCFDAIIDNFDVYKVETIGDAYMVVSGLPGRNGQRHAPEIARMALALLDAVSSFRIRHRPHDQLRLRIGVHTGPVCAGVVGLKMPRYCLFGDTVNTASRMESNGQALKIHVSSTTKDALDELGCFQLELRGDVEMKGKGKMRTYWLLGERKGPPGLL
Outline: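 Potency is the EC50 from a four-parameter logistic fit, also expressed relative to the in-plate CNP22 control (×100), with at least two replicates. Compounds (ten concentrations, […], HSA-free diluent with 1% OVA, 0.01% Tween20) were incubated 30 min at 37 °C on HEK293 cells co-expressing hNPR2 and a GloSensor cGMP luciferase. Luminescence detected with Bright-Glo.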

[3] = 5 mM sodium acetate, 250 mM glycerol, pH 4.0, room temperature, read-out: Solubility at pH 4.0
[4] = 8 mM sodium phosphate, 23 mg/mL glycerol, pH 6.5, room temperature, read-out: Solubility at pH 6.5

Compound	solubility [1, 3] [mM]	solubility [1, 4] [mM]	hNPR2 0% HSA. [EC50% rel CNP] [2] [%]	solubility ([1]; pH 4) [mM]	EC50 ([2]; 0% HSA, HEK293-hNPR2/GloSensor cells) [nM]
CC[C@H](C)[C@@H]1NC(=O)[C@H](CCCNC(=N)N)NC(=O)[C@H](CC(=O)O)NC(=O)[C@H](CC(C)C)NC(=O)[C@@H]2CCCN2C(=O)[C@H](CC(C)C)NC(=O)CNC(=O)[C@H](Cc2ccccc2)NC(=O)[C@@H](NC(=O)CNC(=O)[C@H](CCC(N)=O)NC(=O)[C@H](CO)NC(=O)CNC(=O)CNC(=O)[C@H](CCCCN)NC(=O)[C@H](CCCCN)NC(=O)[C@H](CCC(N)=O)NC(=O)[C@H](C)NC(=O)CNC(=O)[C@H](CCCCN)NC(=O)[C@H](Cc2ccc(O)cc2)NC(=O)COCCOCCNC(=O)COCCOCCNC(=O)COCCOCCNC(=O)COCCOCCNC(=O)CC[C@H](NC(=O)CC[C@H](NC(=O)CCCCCCCCCCCCCCCCC(=O)O)C(=O)O)C(=O)O)CSSC[C@@H](C(=O)O)NC(=O)CNC(=O)[C@H](CC(C)C)NC(=O)CNC(=O)[C@H](CO)NC(=O)[C@H](CC(C)C)NC(=O)[C@H](CO)NC(=O)CNC1=O [compound 9435] ({C18 diacid-γGlu-γGlu-AEEA-AEEA-AEEA-AEEA}-YKGAQKKGGSQGCFGLPLDRIGSLSGLGC-OH; disulfide 13-29; C-terminus assumed)	7.42 (≈ 29.9 mg/mL)	2.36 (≈ 9.5 mg/mL)	73.6		
CC[C@H](C)[C@@H]1NC(=O)[C@H](CCCNC(=N)N)NC(=O)[C@H](CC(=O)O)NC(=O)[C@H](CC(C)C)NC(=O)[C@@H]2CCCN2C(=O)[C@H](CC(C)C)NC(=O)CNC(=O)[C@H](Cc2ccccc2)NC(=O)[C@@H](NC(=O)CNC(=O)[C@H](CCC(N)=O)NC(=O)[C@H](CO)NC(=O)[C@H](CC(C)C)NC(=O)CNC(=O)[C@H](CCCCN)NC(=O)[C@H](CCCCN)NC(=O)[C@H](CCC(N)=O)NC(=O)[C@H](C)NC(=O)CNC(=O)[C@H](CCCCN)NC(=O)[C@H](Cc2ccc(O)cc2)NC(=O)COCCOCCNC(=O)COCCOCCNC(=O)COCCOCCNC(=O)COCCOCCNC(=O)CC[C@H](NC(=O)CC[C@H](NC(=O)CC[C@H](NC(=O)CCCCCCCCCCCCCCCCC(=O)O)C(=O)O)C(=O)O)C(=O)O)CSSC[C@@H](C(=O)O)NC(=O)CNC(=O)[C@H](CC(C)C)NC(=O)CNC(=O)[C@H](CO)NC(=O)[C@H](CC(C)C)NC(=O)[C@H](CO)NC(=O)CNC1=O [compound 9480] ({C18 diacid-γGlu-γGlu-γGlu-AEEA-AEEA-AEEA-AEEA}-YKGAQKKGLSQGCFGLPLDRIGSLSGLGC-OH; disulfide 13-29)	0.023 (≈ 0.097 mg/mL)	6.17 (≈ 26 mg/mL)	45.2		
CC[C@H](C)[C@@H]1NC(=O)[C@H](CCCNC(=N)N)NC(=O)[C@H](CC(=O)O)NC(=O)[C@H](CC(C)C)NC(=O)[C@@H]2CCCN2C(=O)[C@H](CC(C)C)NC(=O)CNC(=O)[C@H](Cc2ccccc2)NC(=O)[C@@H](NC(=O)CNC(=O)[C@H](CO)NC(=O)[C@H](CO)NC(=O)[C@H](CC(C)C)NC(=O)CNC(=O)[C@H](CCCCN)NC(=O)[C@H](CCCCN)NC(=O)[C@H](CCC(N)=O)NC(=O)[C@H](C)NC(=O)CNC(=O)[C@H](CCCCN)NC(=O)[C@H](Cc2ccc(O)cc2)NC(=O)[C@H](CCCCN)NC(=O)[C@H](CCCNC(=N)N)NC(=O)[C@H](C)NC(=O)[C@H](CCC(N)=O)NC(=O)[C@@H]2CCCN2C(=O)[C@H](Cc2c[nH]cn2)NC(=O)[C@H](CCC(=O)O)NC(=O)[C@H](CCC(N)=O)NC(=O)CC[C@H](NC(=O)CC[C@H](NC(=O)CC[C@H](NC(=O)CC[C@H](NC(=O)CC[C@H](NC(=O)CCCCCCCCCCCCCCCCC(=O)O)C(=O)O)C(=O)O)C(=O)O)C(=O)O)C(=O)O)CSSC[C@@H](C(=O)O)NC(=O)CNC(=O)[C@H](CC(C)C)NC(=O)CNC(=O)[C@H](CO)NC(=O)[C@H](CC(C)C)NC(=O)[C@H](CO)NC(=O)CNC1=O [compound 9482] ({C18 diacid-γGlu-γGlu-γGlu-γGlu-γGlu}-QEHPQARKYKGAQKKGLSSGCFGLPLDRIGSLSGLGC-OH; disulfide 21-37)	0.099 (≈ 0.478 mg/mL)	5.32 (≈ 25.7 mg/mL)	39.4		
CC[C@H](C)[C@@H]1NC(=O)[C@H](CCCNC(=N)N)NC(=O)[C@H](CCC(=O)O)NC(=O)[C@H](CC(C)C)NC(=O)[C@@H]2CCCN2C(=O)[C@H](CC(C)C)NC(=O)CNC(=O)[C@H](Cc2ccccc2)NC(=O)[C@@H](NC(=O)CNC(=O)[C@H](CO)NC(=O)[C@H](CO)NC(=O)[C@H](CC(C)C)NC(=O)CNC(=O)[C@H](CCCCN)NC(=O)[C@H](CCCCN)NC(=O)[C@H](CCC(N)=O)NC(=O)[C@H](C)NC(=O)CNC(=O)[C@H](CCCCN)NC(=O)[C@H](Cc2ccc(O)cc2)NC(=O)[C@H](CCCCN)NC(=O)[C@H](CCCNC(=N)N)NC(=O)[C@H](C)NC(=O)[C@H](CCC(N)=O)NC(=O)[C@@H]2CCCN2C(=O)[C@H](Cc2c[nH]cn2)NC(=O)[C@H](CCC(=O)O)NC(=O)[C@H](CCC(N)=O)NC(=O)CC[C@H](NC(=O)CC[C@H](NC(=O)CC[C@H](NC(=O)CC[C@H](NC(=O)CCCCCCCCCCCCCCCCC(=O)O)C(=O)O)C(=O)O)C(=O)O)C(=O)O)CSSC[C@@H](C(=O)O)NC(=O)CNC(=O)[C@H](CC(C)C)NC(=O)CNC(=O)[C@H](CO)NC(=O)[C@H](CC(C)C)NC(=O)[C@H](CO)NC(=O)CNC1=O [compound 9483] ({C18 diacid-γGlu-γGlu-γGlu-γGlu}-QEHPQARKYKGAQKKGLSSGCFGLPLERIGSLSGLGC-OH; disulfide 21-37)			10.2	4.96 (≈ 23.4 mg/mL)	0.3
